Data from the supplement of paper PMC8960247.
± gives the standard error.

Tests used:
621-102 (TSC2-deficient) = test: relative viability vs DMSO; higher = less cytotoxic; details: serum: 10% FBS, 72 h
621-103 (TSC2-rescued) = test: as above; details: serum: 10% FBS, 72 h
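Also: immortalized renal angiomyolipoma cells stably carrying empty vector or TSC2, dosed in 384-well plates in DMEM, viability normalized to vehicle-treated wells within each plate.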

Compound | relative viability (621-102 (TSC2-deficient); 0.0001 µM) [%] | relative viability (621-102 (TSC2-deficient); 0.001 µM) [%] | relative viability (621-102 (TSC2-deficient); 0.01 µM) [%] | relative viability (621-102 (TSC2-deficient); 0.1 µM) [%] | relative viability (621-102 (TSC2-deficient); 1 µM) [%] | relative viability (621-102 (TSC2-deficient); 10 µM) [%] | relative viability (621-103 (TSC2-rescued); 0.0001 µM) [%] | relative viability (621-103 (TSC2-rescued); 0.001 µM) [%] | relative viability (621-103 (TSC2-rescued); 0.01 µM) [%] | relative viability (621-103 (TSC2-rescued); 0.1 µM) [%] | relative viability (621-103 (TSC2-rescued); 1 µM) [%] | relative viability (621-103 (TSC2-rescued); 10 µM) [%]
CC(C)(C)NC(=O)[C@H]1CC[C@H]2[C@@H]3CC[C@H]4NC(=O)C=C[C@]4(C)[C@H]3CC[C@]12C [Finasteride] | 112 ± 1.9 | 114 ± 4 | 106 ± 2 | 99.13 ± 0.73 | 92.7 ± 2 | 92.5 ± 2.9 | 102.7 ± 0.88 | 101 ± 1.6 | 102.1 ± 0.43 | 101.2 ± 0.15 | 101.2 ± 0.59 | 99.6 ± 0.87
Nc1[nH]cnc2ncnc1-2 [Adenine] | 98 ± 4 | 96.5 ± 2.6 | 100 ± 3 | 97.9 ± 2.6 | 101 ± 2.1 | 112.7 ± 0.18 | 101 ± 3.9 | 98.5 ± 4.1 | 101 ± 1.6 | 97.3 ± 1.1 | 104.9 ± 0.9 | 117 ± 1.5
CNC(=O)c1ccccc1Sc1ccc2c(/C=C/c3ccccn3)n[nH]c2c1 [Axitinib] | 102 ± 3.9 | 104 ± 1.7 | 113 ± 0.88 | 109 ± 3.8 | 103.5 ± 0.7 | 55 ± 0.8 | 86.7 ± 7.2 | 97.7 ± 3.4 | 100 ± 0.42 | 102 ± 1.1 | 98.7 ± 1.9 | 40.7 ± 1.5
Cc1ccc(NC(=O)c2ccc(CN3CCN(C)CC3)cc2)cc1Nc1nccc(-c2cccnc2)n1 [Imatinib (STI571)] | 85.09 ± 0.54 | 107 ± 2.1 | 99 ± 3.4 | 109 ± 3.3 | 108 ± 2.7 | 95.35 ± 0.94 | 94.6 ± 4.2 | 97.664 ± 0.066 | 101 ± 0.77 | 101 ± 2 | 94.4 ± 3.7 | 96.9 ± 4.7
Cc1cn([C@H]2C=C[C@@H](CO)O2)c(=O)[nH]c1=O [Stavudine] | 75.4 ± 3.2 | 76.7 ± 0.81 | 81.206 ± 0.072 | 89.1 ± 8.5 | 83.4 ± 2.3 | 71.2 ± 1.9 | 105 ± 1.2 | 99.6 ± 5.1 | 110 ± 5.4 | 109 ± 5.7 | 93.2 ± 2.2 | 91.2 ± 1.3
O=C(c1ccc(F)cc1)C1CCN(CCn2c(=O)[nH]c3ccccc3c2=O)CC1 [Ketanserin (Vulketan Gel)] | 89 ± 2.5 | 103 ± 2.1 | 98.4 ± 2 | 103.9 ± 0.64 | 92.4 ± 3.8 | 88.1 ± 1.1 | 113.6 ± 1.1 | 103 ± 2.4 | 102.89 ± 0.072 | 105.8 ± 0.41 | 107 ± 1.4 | 96.3 ± 1
Cc1cc(OCCCS(C)(=O)=O)cc(C)c1-c1cccc(COc2ccc3c(c2)OC[C@H]3CC(=O)O)c1 [TAK-875] | 61.2 ± 7.8 | 61.5 ± 4 | 75.9 ± 5.2 | 80.9 ± 4.5 | 84.24 ± 0.76 | 84.2 ± 5.3 | 103 ± 3 | 102 ± 1.9 | 103.7 ± 0.45 | 102.5 ± 0.61 | 103 ± 3.5 | 95.16 ± 0.36
CCN1CCN(C(=O)Cc2ccc(Nc3ncc(F)c(Nc4ccc(C(=O)Nc5ccccc5Cl)cc4)n3)cc2)CC1 [Aurora A Inhibitor I] | 105.83 ± 0.089 | 113 ± 3.6 | 114 ± 3.2 | 105 ± 2.2 | 104 ± 1.4 | 0.786 ± 0.16 | 101 ± 0.28 | 100.7 ± 0.54 | 98.55 ± 0.77 | 99.54 ± 0.75 | 87.1 ± 2.3 | 0.915 ± 0.027
CC(O)(CS(=O)(=O)c1ccc(F)cc1)C(=O)Nc1ccc(C#N)c(C(F)(F)F)c1 (stereo not drawn) [Bicalutamide (Casodex)] | 126 ± 1.3 | 119 ± 3.4 | 112 ± 1.2 | 102 ± 2.8 | 110.6 ± 0.79 | 112 ± 1.8 | 105.2 ± 0.55 | 102 ± 1.1 | 101.3 ± 0.41 | 102 ± 1.6 | 102.5 ± 0.88 | 102 ± 1.1
C=CC(=O)Nc1cccc(Oc2nc(Nc3ccc(N4CCN(C)CC4)cc3)ncc2Cl)c1 [WZ3146] | 112 ± 3.9 | 110 ± 3.5 | 106 ± 2.6 | 107 ± 3.3 | 97 ± 2.9 | 23.8 ± 5.1 | 103 ± 2 | 100.6 ± 0.42 | 100 ± 1.1 | 101 ± 1.8 | 79.4 ± 1.4 | 12.9 ± 0.067
N#C/C(=C\c1ccc(O)c(O)c1)C(=O)NCc1ccccc1 [AG-490] | 99.7 ± 2.8 | 98.6 ± 3.6 | 92.6 ± 2.9 | 104 ± 2.4 | 99.2 ± 6.6 | 81 ± 1.6 | 109 ± 1.2 | 109 ± 3.9 | 108 ± 2 | 114 ± 1.2 | 107 ± 1 | 83.8 ± 3.9
C[C@@H]1CCN(C(=O)CC#N)C[C@@H]1N(C)c1ncnc2[nH]ccc12 | 113 ± 2.6 | 98.5 ± 1.1 | 106 ± 4.8 | 109 ± 1.1 | 98.6 ± 2.7 | 104 ± 1.3 | 104 ± 4.3 | 100 ± 2.5 | 99.134 ± 0.051 | 102 ± 2.4 | 107 ± 0.27 | 96.7 ± 1.1
CC(C)c1cc(-c2ccc(F)c3ccccc23)nc(N)n1 | 91.6 ± 2.5 | 107 ± 7 | 99.3 ± 4.8 | 94.6 ± 1.2 | 93.4 ± 2.1 | 97.22 ± 0.33 | 96.2 ± 4.6 | 92.2 ± 4.8 | 97.9 ± 1.5 | 107 ± 3.5 | 101.7 ± 0.2 | 98.4 ± 1.7
CC(=O)O[C@@]12CO[C@@H]1C[C@H](O)[C@@]1(C)C(=O)[C@H](O)C3=C(C)[C@@H](OC(=O)[C@H](O)[C@@H](NC(=O)OC(C)(C)C)c4ccccc4)C[C@@](O)([C@@H](OC(=O)c4ccccc4)[C@H]21)C3(C)C [Docetaxel] | 36.3 ± 1.5 | 32.17 ± 0.058 | 33.5 ± 1.1 | 32.5 ± 0.43 | 31.8 ± 0.54 | 41.7 ± 1.1 | 57 ± 0.81 | 50.6 ± 1 | 42.9 ± 1.7 | 33.2 ± 0.49 | 35.55 ± 0.17 | 55.5 ± 2
COc1cc2ncnc(Nc3cccc(Br)c3)c2cc1OC | 96.7 ± 1 | 107 ± 3.8 | 115 ± 5.2 | 105.5 ± 0.2 | 107.6 ± 0.58 | 75.6 ± 6.2 | 102 ± 1.5 | 102 ± 1.7 | 103.2 ± 1 | 98.4 ± 2.3 | 101 ± 1.6 | 92.1 ± 4.8
CC[C@@H]1C(=O)N(C)c2cnc(Nc3ccc(C(=O)N[C@H]4CC[C@H](N5CCN(CC6CC6)CC5)CC4)cc3OC)nc2N1C(C)C [BI6727 (Volasertib)] | 96.1 ± 4.3 | 72.9 ± 4.5 | 59.6 ± 3 | 42.4 ± 0.63 | 41.9 ± 0.7 | 1.64 ± 0.065 | 76.3 ± 0.95 | 61.81 ± 0.53 | 53.6 ± 0.88 | 49 ± 2 | 44.3 ± 1.4 | 5.99 ± 0.27
CNC(=O)CN1CCC(Oc2cc3c(Nc4cccc(Cl)c4F)ncnc3cc2OC)CC1 [AZD8931] | 106 ± 2.5 | 104 ± 3 | 98.4 ± 2 | 96.61 ± 0.73 | 99.6 ± 2.1 | 93.4 ± 4.9 | 102 ± 1.5 | 99.7 ± 2.3 | 101 ± 2.6 | 100.3 ± 0.18 | 99 ± 1.7 | 83.2 ± 3.3
COc1cc2/c(=N/c3ccc(Br)cc3F)nc[nH]c2cc1OCC1CCN(C)CC1 [Vandetanib] | 94.4 ± 4.3 | 101 ± 3.8 | 109 ± 3.6 | 115 ± 1.7 | 102 ± 1.1 | 33.9 ± 2.9 | 102 ± 2.5 | 99.63 ± 0.8 | 98.84 ± 0.35 | 97.74 ± 0.94 | 98.3 ± 0.93 | 11.4 ± 1.8
COc1ccc(-c2ccc3c(N4CCOC[C@@H]4C)nc(N4CCOC[C@@H]4C)nc3n2)cc1CO [AZD8055] | 80 ± 3.1 | 86.2 ± 2.7 | 66.51 ± 0.58 | 39.8 ± 0.67 | 21.4 ± 2.2 | 19 ± 0.54 | 90.4 ± 3.3 | 81.1 ± 4.3 | 69 ± 0.95 | 48.4 ± 0.71 | 34.6 ± 0.72 | 34.3 ± 1.4
